# In publication PMC6471177 (Pharmaceutics, 2019):
# Test: in vivo
# Conditions: for Funabs (true unabsorbed fraction) / absorbed fraction in the gastrointestinal tract: 24 h
# Excerpt: Male Sprague–Dawley rats at 6–9 weeks old (weighing 200–260 g) were purchased from Charles River Company Korea (Orient, Seoul, Korea). […] All rats were maintained in the same conditions as a reported method.
# For the oral study, after overnight fasting with free access to water, rats were divided into three subgroups according to the doses of LC478 administered, which were the same as in the intravenous study. […] Other procedures were followed to the intravenous study.
# Based on the standard methods, we calculated the following pharmacokinetic parameters using non-compartmental analysis (WinNonlin®; Professional Edition version 2.1; Pharsight, Mountain View, CA, USA): The total area under the plasma concentration–time curve from time zero to last blood sampling time (AUClast) or time infinity (AUCinf) by log-linear trapezoidal extrapolation method, terminal half-life, time-averaged total body, renal, and non-renal clearances (CL, CLR, and CLNR, respectively), mean residence time (MRT), apparent volume of distribution at a steady state (Vss), apparent oral clearance (CL/F), and apparent volume of distribution during elimination (Vz/F). We directly read the peak plasma concentration (Cmax) and time to reach Cmax (Tmax) from the experimental data.
# The absorbed fraction of oral dose (Fabs), absolute bioavailability (F), and relative bioavailability (Frel) were calculated by the following equations. (1) F (%)=AUCinf, p.o/AUCinf, i.v×100 (2) Frel (%)=AUCinf with LC478/AUCinf without LC478×100 (3) GI24 h, p.o/100=(1−Fabs)+(F/100×GI24 h, i.v./100)
# [1] = male, Sprague-Dawley, rat, in vivo, po, 20 mg/kg
# [2] = male, Sprague-Dawley, rat, in vivo, po, 30 mg/kg
# [3] = male, Sprague-Dawley, rat, in vivo, po, 100 mg/kg
structure (smiles),measurement,setting,value
CC(=O)O[C@@]12CO[C@@H]1C[C@H](O)[C@@]1(C)C(=O)[C@H](O)C3=C(C)[C@@H](OC(=O)[C@H](O)[C@@H](NC(=O)OC(C)(C)C)c4ccccc4)C[C@@](O)([C@@H](OC(=O)c4ccccc4)[C@H]21)C3(C)C [docetaxel],"CLR,fu (CLR considering the free fraction in plasma)","male, Sprague-Dawley, rat, in vivo",5.04 mL/min/kg
same,"CLR,fu (CLR considering the free fraction in plasma)","male, Sprague-Dawley, rat, in vivo, 30 mg/kg",5.15 mL/min/kg
same,"CLR,fu (CLR considering the free fraction in plasma)","male, Sprague-Dawley, rat, in vivo, 100 mg/kg",2.55 mL/min/kg
same,CLR,[1],3.43 ± 1.15 mL/min/kg
same,Tmax,[1],15 min
same,AUC(0-t),"male, Sprague-Dawley, rat, in vivo, po, 20 mg/kg, AUClast",82.8 ng·h/mL
same,CL/F,"male, Sprague-Dawley, rat, in vivo, po, 20 mg/kg, CL/F",3040 ± 805 mL/min/kg
same,CL renal,"male, Sprague-Dawley, rat, in vivo, po, 20 mg/kg, CLR",3.5 ± 1.1 mL/min/kg
same,Vd/F,"male, Sprague-Dawley, rat, in vivo, po, 20 mg/kg, Vz/F",670 ± 170 L/kg
same,Funabs (true unabsorbed fraction),[2],36.5%
same,absorbed fraction in the gastrointestinal tract,[2],0.635
same,F increased by,[3],102%
same,Frel increased by,[3],109%
same,Funabs (true unabsorbed fraction),[3],20.0%
same,absorbed fraction in the gastrointestinal tract,[3],0.801
same,Tmax,"rats, docetaxel 20 mg/kg oral, with 30 mg/kg oral LC478",30 (15−30) min
